Experimental data: patent US20210220419A1, “Herbal Nutraceutical Formulation to Reduce Oxidative Stress, Viral and Microbial Infections, and Inflammation” (priority 2017, published 2021)
In brackets after ≈: the same amount, converted by molar mass. Where two headings read alike, the source gives them in different places. Blank lines part the entries; values can stand above or below the compound they belong to.

Key:
[1] = system: rat pancreatic islets; test: Insulin secretion in rat pancreatic islets (ELISA); type: cell-based; settings: 3 μM
Source text: The objective of the experiment is to evaluate the effect of herbal supplement test composition on insulin secretion in rat pancreatic islets. Insulin, a peptide hormone, is secreted by pancreatic β-cells and is a key regulator in glucose homeostasis. Insulin deficiency leads to insulin-dependent (type 1) diabetes, whereas resistance to insulin action is common in non-insulin-dependent diabetes (type 2), obesity, and endocrine dysfunctions. The pancreatic β-cells are known to be sensitive to the glucose concentration in the blood. When the blood glucose levels are high they secrete insulin into the blood; when the levels are low they cease their secretion of this hormone into the general circulation. Insulin released by the β-cells is the main regulator of glucose levels.
Firstly, the herbal supplement composition is dissolved in DMSO with sonication for 15 min and centrifuged at 10,000 rpm for 10 minutes at room temperature to remove insoluble debris. Glyburide (CAS: 10238-21-8) and Glucose are used as reference compounds in the present experiment. Glyburide (CAS: 10238-21-8) is dissolved in DMSO and used at 3 μM. […]
At the end of the 1 hr incubation period, 20 μl of supernatant is gently transferred to another plate. Insulin secretion is measured using the Mercodia Rat Insulin ELISA kit according to the manufacturer's protocol. […]

[2] = system: Low Density Lipoproteins, Human Plasma; test: LDL oxidation in a cell-free system, Cu2+ induced (Experiment 10); type: biochemical; settings: reference compounds, FIG. 6B
[3] = DPPH radical scavenging assay (Experiment 2); type: biochemical
Description: Gallic acid (reference inhibitor) preparation. For gallic acid, a stock of 200 μg/ml was prepared by dissolving 2 mg of gallic acid in 10 ml of methanol. Further dilutions were made as required with methanol. […] In brief, the total reaction mixture contained methanol/vehicle buffer/positive control/various concentrations of test solution and DPPH to a final concentration of 0.132 mM. The reaction mixture was incubated at 25° C. for 20 minutes. Following incubation the absorbance was read at 510 nm using a micro-well plate reader (Molecular devices Versamax microplate reader). A control reaction was carried out without test samples. The % inhibition values were calculated as follows: [formula] Where, Absorbance=Final Absorbance−Initial absorbance. IC50 was calculated using log-probit analysis.

[4] = Super oxide radical scavenging assay (NADH/NBT/PMS); type: biochemical
Description: (§1) Gallic acid (reference inhibitor) preparation, For gallic acid, a stock of 500 μg/ml was prepared by dissolving 5 mg of gallic acid in 10 ml of 0.1M phosphate buffer pH 7.4. […] The assay was carried out as per the method of Yen et al. with modifications. In brief, the reaction mixture contained 0.1M phosphate buffer pH 7.4/vehicle buffer/positive control/test sample of various concentrations, 292.5 μM NADH, 37.5 μM NBT and 15 μM PMS. The plate was mixed and incubated at 25° C. for 5 minutes. The absorbance was measured at 560 nm in a micro-plate reader (Versamax, Molecular devices). A control reaction was carried out without test samples. The % inhibition values were calculated as follows: [formula] IC50 was calculated using log-probit analysis.

[5] = Solubility of sample preparation upon visual inspection; type: physicochemical
Description: Briefly, 12.5 mg of the herbal composition 2 contents was weighed, dissolved in 312.5 μl of DMSO and the volume was made up to 10 ml with 100% methanol. Further dilutions were done in 100% methanol containing 3.125% of DMSO. […] For calculation purposes the sample was considered to be 100% soluble.
Gallic acid (reference inhibitor) preparation. For gallic acid, a stock of 200 μg/ml was prepared by dissolving 2 mg of gallic acid in 10 ml of methanol. Further dilutions were made as required with methanol.
Briefly, 29.73 mg of the Herbal composition 2 contents was weighed, dissolved in 500 μl of DMSO and the volume was made up to 25 ml with phosphate buffered saline. […] The sample was filtered and the filtrate was used for the assay. For calculation purposes the sample was considered to be 100% soluble.
Trolox (reference inhibitor) preparation, For trolox, a stock of […] was prepared by dissolving 2 mg of trolox in 2 ml of phosphate buffered saline. […] Further dilutions were made as required with phosphate buffered saline.
Briefly, 8 mg of the Herbal composition 2 contents was weighed, dissolved in 200 μl of DMSO and the volume was made up to 2 ml with 0.1M phosphate buffer pH 7.4. Further dilutions were done in 0.1M phosphate buffer pH 7.4 containing 10% of DMSO. […] For calculation purposes the sample was considered to be 100% soluble.
as §1, with “samples.” for “samples. The % inhibition values were calculated as follows: [formula] IC50 was calculated using log-probit analysis.”

[6] = system: Caco-2 cells; test: NBD-cholesterol uptake in Caco-2 cells; type: cell-based, human; settings: positive control, 1.25, 2.5, 5 and 10 μM, 48 hrs
Description: The objective of the experiment is to evaluate the effect of the supplement composition on cholesterol uptake in Caco-2 (human epithelial colorectal adenocarcinoma) cells. Cholesterol is both an important structural component of cell membranes and an early intermediate in hormone and bile acid biosynthesis. The supplement composition is dissolved in Dimethyl Sulphoxide (DMSO) with sonication for 15 min and centrifuged at 10,000 rpm for 10 min at room temperature to remove insoluble debris. The reference compound used in the present experiment is U-18666A (CAS: 3039-71-2), which increases cholesterol uptake by inhibiting trafficking of synthesized cholesterol. The U-18666A is dissolved in DMSO and used at a concentration of about 1.25, 2.5, 5 and 10 μM. Moreover, U-18666A is used as a positive control. The reagent used is 3-hexanoyl-NBD Cholesterol. Caco-2 cells are maintained at 60-70% confluence in complete growth medium EMEM containing 20% FBS and required antibiotic. For the assay, cells are harvested using 0.25% trypsin EDTA. The trypsinized cells are centrifuged at 1200 rpm for 5 minutes and re-suspended in growth medium. […] At the end of the incubation period, the plates are washed twice with PBS and cholesterol uptake is calculated by measuring NBD cholesterol fluorescence (Ex 485 nm, Em 535 nm). […]

[7] = DPPH radical scavenging activity, cell-free assay (Experiment 7); type: biochemical; settings: 200 μM DPPH, 30 min
Description: The objective of this experiment is to evaluate the effect of the supplement concentration on DPPH radical scavenging activity in a cell-free assay. The supplement concentration is dissolved in DMSO with sonication for 15 min and centrifuged at 10,000 rpm for 10 min at room temperature to remove insoluble debris. 2,2-Diphenyl-1-picrylhydrazyl (DPPH) is used as a reagent for this experiment. DPPH is an antioxidant reagent that is used as a free radical trap or scavenger. The color of DPPH changes from red to yellow as its scavenging activity increases. This is measured by absorbance at 517 nm. The reference compound used is Trolox (CAS: 53188-07-1). The Trolox is dissolved in DMSO and used at different concentrations. Trolox is used as positive control.
A reaction mix is made in 200 μL methanol containing 200 μM of DPPH and various concentrations of the supplement. The mixture is mixed gently with a pipette and left to stand for 30 min in the dark, after which absorbance readings are taken at 517 nm. The change in DPPH absorbance is calculated relative to the absorbance of DPPH alone i.e. without the supplement. The DMSO concentration in the assay is maintained at less than equal to 1.0%. The data is fit to a non-linear regression using Graph pad Prism (version 5.0). […]

[8] = system: LDL oxidation; test: LDL oxidation inhibition assay, human serum, copper sulphate (Experiment 3); type: biochemical
Description: The sample was filtered and the filtrate was used for the assay. […] Trolox (reference inhibitor) preparation, For trolox, a stock of […] was prepared by dissolving 2 mg of trolox in 2 ml of phosphate buffered saline. […] Further dilutions were made as required with phosphate buffered saline. The assay was carried out as per the method of Hodgson et al with modifications. In brief, the reaction mixture contained phosphate buffered saline/vehicle buffer/positive control/test sample of various concentrations and serum from fasting human. Copper sulphate solution was added to the reaction mixture to start the reaction. The reaction mix was mixed and read immediately at 234 nm using a UV-VIS spectrophotometer, for the initial reading, and incubated. After the completion of incubation period, the final absorbance was measured at 234 nm. A control reaction was carried out without test samples. The % inhibition values were calculated as follows: [formula] Where, Absorbance=Final Absorbance−Initial absorbance. IC50 was calculated using log-probit analysis.

SMILES: COc1ccc(Cl)cc1C(=O)NCCc1ccc(S(=O)(=O)NC(=O)NC2CCCCC2)cc1 [Glyburide]
Insulin secretion, effect in words [1]: significant increase

SMILES: O=C1O[C@H]([C@@H](O)CO)C(O)=C1O [ascorbic acid]
Inhibition of LDL oxidation, in words [2]: significant inhibition

SMILES: O=C(O)c1cc(O)c(O)c(O)c1 [Gallic Acid, Gallic acid]
% Inhibition (Mean ± SEM), DPPH ([3]; 0.5 μg/ml): 8.71 ± 1.12%
% Inhibition (Mean ± SEM), DPPH ([3]; 1.5 μg/ml): 32.14 ± 2.42%
% Inhibition (Mean ± SEM), DPPH ([3]; 2.5 μg/ml): 60.58 ± 2.84%
% Inhibition (Mean ± SEM), DPPH ([3]; 5 μg/ml): 80.52 ± 0.57%
IC50 (95% Confidence Interval), DPPH radical scavenging ([3]; log-probit analysis): 2.09 µg/mL (≈ 12.3 µM)
% Inhibition (Mean ± SEM), super oxide radical ([4]; 5 μg/ml): 27.00 ± 3.37%
% Inhibition (Mean ± SEM), super oxide radical ([4]; 10 μg/ml): 32.89 ± 3.26%
% Inhibition (Mean ± SEM), super oxide radical ([4]; 20 μg/ml): 47.80 ± 4.26%
% Inhibition (Mean ± SEM), super oxide radical ([4]; 40 μg/ml): 69.50 ± 1.00%
% Inhibition (Mean ± SEM), super oxide radical ([4]; 80 μg/ml): 83.67 ± 0.00%
IC50 (95% Confidence Interval), super oxide radical scavenging ([4]; log-probit analysis): 17.86 µg/mL (≈ 105 µM)
Solubility upon visual inspection [5]: approximately 100%
Solubility upon visual inspection ([5]; pH 7.4): approximately 100%

SMILES: CCN(CC)CCO[C@H]1CC[C@@]2(C)C(=CC[C@@H]3[C@@H]2CC[C@]2(C)C(=O)CC[C@@H]32)C1 [U-18666A]
Increase in NBD-cholesterol uptake [6]: up to 25%

EC50, DPPH scavenging activity [7]: 28 µg/mL (≈ 112 µM)
IC50 ([8]; log-probit analysis, read-out: IC50 (95% Confidence Interval), LDL oxidation inhibition): 180 nM
Solubility upon visual inspection [5]: approximately 100%
SMILES: Cc1c(C)c2c(c(C)c1O)CCC(C)(C(=O)O)O2 (centres unmarked) [Trolox]
% Inhibition (Mean ± SEM), LDL oxidation ([8]; 0.25 μM): 48.80 ± 6.21%
% Inhibition (Mean ± SEM), LDL oxidation ([8]; 0.5 μM): 73.07 ± 3.39%
% Inhibition (Mean ± SEM), LDL oxidation ([8]; 1.0 μM): 76.33 ± 0.07%
% Inhibition (Mean ± SEM), LDL oxidation ([8]; 2.0 μM): 79.04 ± 0.64%
